Data from patent US20230399661A1, “SHUTTLE AGENT PEPTIDES OF MINIMAL LENGTH AND VARIANTS THEREOF ADAPTED FOR TRANSDUCTION OF CAS9-RNP AND OTHER NUCLEOPROTEIN CARGOS” (priority 2020, published 2023).

Key:
Assay type in all cases: cell-based, Human
[1] = test system: HeLa cells; test: Large-scale screening for propidium iodide (PI) transduction activity, flow cytometry; settings: data not shown
Experimental: HeLa cells were plated (20 000 cells/well) in a 96 well-plate the day prior to the experiment in DMEM containing 10% FBS. Each delivery mix comprising a synthetic peptide shuttle agent (10-30 μM) and the propidium iodide (PI) (10 μg/mL) were prepared and completed to 50 μL with PBS. Cells were washed once with PBS and the shuttle/PI mix was added to the cells and incubated for one minute. Then 100 μL DMEM containing 10% FBS was added to the mix. Cells were then immediately washed once with PBS and incubated in DMEM containing 10% FBS for two hours. Cells were then analyzed by flow cytometry. […]
Due to the large number of peptides screened, negative controls were performed in parallel for each experimental batch and included a “no treatment” (NT) control in which the cells were not exposed to shuttle peptide or cargo, as well as a “cargo alone” control in which cells were exposed to the cargo in the absence of shuttle agent. […] Mean PI or GFP-NLS delivery score was calculated by multiplying the mean fluorescence intensity (of at least duplicate samples) measured for the viable PI+ or GFP+ cells by the mean percentage of viable PI+ or GFP+ cells, divided by 100,000 for GFP delivery or by 10,000 for PI delivery. […]

[2] = test system: CFF-16HBEge cells; test: GFP transduction in the presence or absence of Cas9-RNP in CFF-16HBEge cells
Experimental: (§1) HeLa cells were plated (20 000 cells/well) in a 96 well-plate the day prior to the experiment in DMEM containing 10% FBS. A mix was prepared containing a synthetic peptide shuttle agent (10-30 μM), the GFP-NLS (10 μM) with or without a Cas9-NLS recombinant protein (2.5 μM) complexed with a crRNA/tracrRNA (2 μM) targeting the beta-2 microglobulin (B2M) gene and completed to 50 μL with PBS. Cells were washed once with PBS and the shuttle/GFP-NLS/Cas9-RNP mix was added to the cells and incubated for one minute. Then 100 μL DMEM containing 10% FBS was added to the mix. Cells were then immediately washed once with PBS and incubated in DMEM containing 10% FBS for two hours. Cells were the analyzed by flow cytometry.
The above transduction experiments were repeated with FSD10 and FSD375 in a Human Bronchial Epithelial cell line model of cystic fibrosis, CFF-16HBEge.

[3] = test system: CFF-16HBEge cells; test: ABE-Cas9-RNP delivery, base editing evaluated by next-generation sequencing; settings: NGS
Experimental: (§2) For Cas9-RNP or ABE-Cas9-RNP transduction, a mix of Cas9-NLS or ABE-Cas9 recombinant protein (2.5 μM) complexed with a crRNA/tracrRNA (2 μM) targeting the beta-2 microglobulin (B2M) gene were co-incubated with 10-20 μM of synthetic peptide shuttle agent in a final volume of 50 μL completed with PBS. Cells were washed once with PBS and the shuttle/Cas9-RNP complex was added to the cells for and incubated for 60 to 90 seconds. Then 100 μL of DMEM (HeLa) or Alpha-MEM (CFF-16HBEge) containing 10% FBS was added to the mix. Cells were then immediately washed once with PBS and incubated in DMEM (HeLa) or Alpha-MEM (CFF-16HBEge) containing 10% FBS.
(§3) Further transduction experiments in CFF-16HBEge cells were performed to compare the ability of shuttle agents to deliver functional Cas9-RNP genome editing versus ABE-Cas9-RNP base editing complexes. Variants of the shuttle agent FSD10 (FIG. 8A) were tested in parallel, and genome editing/base editing results as evaluated by next-generation sequencing (NGS) are shown in FIGS. 8B and 8C for Cas9-RNP and ABE-Cas9-RNP, respectively.

[4] = test system: CFF-16HBEge cells; test: Cas9-RNP delivery, B2M genome editing; settings: B2M knockout, versus non-treated negative control
Experimental: HeLa cells were plated (10 000 cells/well) in a 96 well-plate the day prior to the experiment in DMEM containing 10% FBS. CFF-16HBEge cells were plated (10 000 cells/well) in a 96 well-plate the day prior to the experiment in Alpha-MEM containing 10% FBS.
as §2
Genome editing events resulting in the absence of B2M protein (knockout) at the cell surface were determined by flow cytometry 6 days post-transduction. Cells were washed once with PBS and incubated with the anti-B2 microglobulin antibody (PE conjugated) (0.5 μL of anti-B2M-PE in […] 0.5% BSA/PBS) for 45 minutes at room temperature. Cells were washed twice with PBS and detached with 50 µL of Trypsin-EDTA for 10 minutes at 37° C. then inactivated by adding 100 μL of media containing 10% FBS. The percentage of knockout cells (cells without B2M antibody signal) was determined by flow cytometry.
A similar genome editing experiment as in Example 6 was performed in the Human Bronchial Epithelial cell line model of cystic fibrosis, CFF-16HBEge.
as §3

[5] = test system: HeLa cells; test: GFP-NLS transduction in the presence or absence of Cas9-RNP complex, flow cytometry
Experimental: as §1
To better understand the inhibitory effect of Cas9-RNP on shuttle agent transduction activity, HeLa cells were incubated with different peptides/shuttle agents and GFP cargo, in the presence or absence of Cas9-RNP, and delivery of GFP was assessed by flow cytometry, as described in Example 1. […] For some shuttle agents, the effect was particularly striking. For example, the GFP transduction efficiency for FSD268 decreased from 92% to 29%, the GFP transduction efficiency for FSD250 decreased from 83% to 13%, the GFP transduction efficiency for FSD10 decreased from 76% to 22%, and the GFP transduction efficiency for FSD395 decreased from 91% to 17%. […] Structure-activity relationships were explored further by repeating the above transduction experiments with shuttle agent variants sharing the same “core” amphipathic cationic alpha helical region as FSD10-15 (FIG. 4A), CM18 (FIG. 4B), and FSD356 (FIG. 4C).

Substance	PI transduction efficiency relative to cargo alone negative control [1]	resistance to Cas9-RNP inhibition of GFP transduction [2]	base editing efficiency (ABE-Cas9-RNP) [3]	genome editing with Cas9-RNP as cargo [4]	GFP transduction activity relative to FSD10-15 ([5]; FIG. 4A)	resistance/sensitivity of GFP transduction to inhibition by Cas9-RNP ([5]; presence vs absence of Cas9-RNP)
FSD174 Scramble: negative control peptide known to have low or no GFP transduction activity (LGRSGRIKIGGWSALASRARQARGLKIWTQGRL; FSD174 Scramble)	lower transduction efficiencies for PI					
FSD375: FSD10-15 with flanking glycine/serine-rich residues (GGSGGGSKWKLARAFARAIKKLGGSGGGS; FSD375)		greater resistance to Cas9-RNP inhibition than FSD10	about 15%	significant genome editing	improving GFP transduction activity over FSD10-15	retained the peptide's resistance to Cas9-RNP
